pIC50: −log10 of the molar value.
Columns and labels:
TAOK2 [1] = molecular target: T1, TAOK2 (Rattus norvegicus, UniProt Q9JLS3); assay: Differential scanning fluorimetry (DSF) binding assay against TAOK2; details: DSF melt temperature shift of TAOK2, 5 μM TAOK2, compound 1 μM
T1 construct: made in house
T1 sequence (Q9JLS3 1-320 limits assumed): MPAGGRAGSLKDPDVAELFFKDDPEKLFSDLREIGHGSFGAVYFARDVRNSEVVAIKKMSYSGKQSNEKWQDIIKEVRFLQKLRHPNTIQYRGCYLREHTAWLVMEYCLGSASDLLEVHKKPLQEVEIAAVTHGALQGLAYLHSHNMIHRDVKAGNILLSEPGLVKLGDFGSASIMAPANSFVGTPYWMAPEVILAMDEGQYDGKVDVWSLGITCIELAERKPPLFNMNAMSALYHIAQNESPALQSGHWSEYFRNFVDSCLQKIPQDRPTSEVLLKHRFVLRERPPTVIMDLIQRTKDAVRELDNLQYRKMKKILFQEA
Description: (§1) Differential scanning fluorimetry binding assays of selected compounds against TAOK2 were conducted to measure strength of compound binding. A solution of 5 μM TAOK2, 50 mM MgCl2, 50 mM HEPES pH 7.5, and 2.5x SyproOrange(Life Technologies) was made. Compound was added to a final concentration of 1 μM. 25 μl of the reaction solution was added to the wells of a Biorad Multiplate 96 wellclear PCR plate. The plate was covered with a Biorad Microseal ‘B’ seal. Plates were read in a Biorad CFX96 Real-Time PCR system. The temperature was increased from 4° C. to 80° C., with fluorescence measurements being taken every 0.5° C. in the 6-FAM Fluorescein channel. The fluorescence response to heat curve was fit to a binding isotherm in order to determine the inflection point, which was taken as the melt temperature (Tm).
The prevalence of multiple heterocycles in the compounds is reflective of the composition of the screen (described in Methods in Supplemental Material). These 13 compounds were purchased from Chembridge Inc. and ChemDiv Inc. for measurement of direct binding using Differential Scanning Fluorimetry (DSF). DSF measures protein melt temperature (Tm) with a lipophilic dye (SyproOrange). As the temperature of the solution is increased, measurements of dye fluorescence are taken. When the protein begins to denature, hydrophobic regions in the protein are exposed, and the dye is able to bind. This binding insulates the dye from the surrounding water, reducing quenching effects and allowing fluorescence. Binding of small molecules to protein has a stabilizing effect, and this is seen by an increase in melt temperature (Table 1). The ΔTm values ranged from 3.0 to −0.6° C. The three compounds with the highest positive shifts were SW034538, SW163112, and SW083688, with 3° C., 2.2° C., and 2° C. shifts, respectively.

TAOK2 [2] = molecular target: T1, TAOK2; assay: Kinase-Glo high-throughput screen / re-screen of TAOK2 activity (MBP substrate); assay type: biochemical; details: estimate from HTS re-screen at 1, 3.3 and 10 μM
Description: TAOK2 activity was screened in a high-throughput fashion using Kinase-Glo (Promega). A 20 μL, solution of 50 mM HEPES pH 7.4, 50 mM MgCl2, 1.27 mg/ml MBP and 0.005 mg/ml TAOK2 was added to each well of a 384 well Corning plate using a Biotek MultiFlo dispenser. 0.2 μl of compound (columns 3 to 22, 50 μM), DMSO negative control (columns 2, 23, and 24), or staurosporine positive control (column 1, 43.4 μM) were then added to each well with a Biomek Liquid handler. 10 μl of 50 μg/ml ATP solution was added to each well with a Labsystems Multidrop384. The plates were incubated at RT for 100 minutes. 20 μl Kinase Glo (Promega) was added to each well, and allowed to incubate for 10minutes under agitation. Luminescence was read on an Envision Multilabel plate reader.
After cherry picking primary hits, the selected compounds were assayed in a limited dose-response format (10, 3.3, and 1 μM) in triplicate using the primary enzymatic assay for TAOK2. The data for each assay well was normalized to the neutral controls. The normalized activity values (replicates) for each compound in each assay were then condensed to a single value (condensed activity) using the “Robust Condensing” method in Genedata Screener®. The condensed activity is the most representative single value of the triplicates. In general, the triplicates were pre-condensed into a pair of values as follows:
In order to study the relationship between TAOK2 and both cancer and autophagy, a high-throughput screen was performed using a 200,000 compound library to discover novel small-molecule kinase inhibitors (FIG. 1A-D). Phosphorylation reactions were performed in a 384 well format against the generic kinase substrate Myelin Basic Protein (MBP) with the addition of compound. Kinase-Glo (Promega) was then added to each well to detect remaining ATP concentration. Thus, inhibitory compounds would decrease TAOK2 activity, which would increase both remaining ATP concentration and luminescence in those wells.
After the initial screen, 1645 compounds were identified with inhibition greater than three σ above the mean DMSO control (FIG. 1A). The Z′ factor of the initial screen across all plates was 0.77, indicating high significance (FIG. 1B). These compounds were then re-screened in triplicate under the same conditions, with the compounds being assayed at three concentrations (1 μM, 3.3 μM, and 10 μM, FIG. 1C, D). 432 compounds were identified after the re-screen with average inhibitions greater than 10 sigma at the 10 μM concentration. The Z′ factor of the confirmation screen was 0.52, again indicating high significance.

p38 = p38 (Homo sapiens, UniProt Q16539); assay: DSF against p38 (selectivity panel of MAPK cascade members); assay type: binding; details: for ΔΔTm (p38): difference between the TAOK2 ΔTm and that of p38, DSF
Chain of p38 (Q16539 whole entry): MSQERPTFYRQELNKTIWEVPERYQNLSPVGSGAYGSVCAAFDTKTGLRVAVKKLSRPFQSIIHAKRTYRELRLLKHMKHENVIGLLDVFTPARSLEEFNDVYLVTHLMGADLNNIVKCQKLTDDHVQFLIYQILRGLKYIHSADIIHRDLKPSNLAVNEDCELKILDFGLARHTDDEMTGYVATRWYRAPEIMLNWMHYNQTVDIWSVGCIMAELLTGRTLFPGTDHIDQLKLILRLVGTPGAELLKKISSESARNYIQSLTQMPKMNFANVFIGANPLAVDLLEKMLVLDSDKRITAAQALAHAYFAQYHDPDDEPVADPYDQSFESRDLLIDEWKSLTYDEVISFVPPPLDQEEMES
Description: as §1
(§2) The difference between the TAOK2 ΔTm and that of p38 and ASK1 was determined. […] The majority of the other compounds were also preferentially inhibitory toward TAOK2. Of the 13 compounds, SW034538, SW172006 and SW083688 were cross-verified for selectivity by performing a specificity screen against 45 kinases commercially at Eurofins Cerep, Inc. (FIG. 3).

ASK1 = molecular target: T2, ASK1 (Homo sapiens, UniProt Q99683); assay: DSF against ASK1 (selectivity panel of MAPK cascade members); assay type: binding; details: difference between the TAOK2 ΔTm and that of ASK1, DSF
T2 sequence (Q99683 1-1374): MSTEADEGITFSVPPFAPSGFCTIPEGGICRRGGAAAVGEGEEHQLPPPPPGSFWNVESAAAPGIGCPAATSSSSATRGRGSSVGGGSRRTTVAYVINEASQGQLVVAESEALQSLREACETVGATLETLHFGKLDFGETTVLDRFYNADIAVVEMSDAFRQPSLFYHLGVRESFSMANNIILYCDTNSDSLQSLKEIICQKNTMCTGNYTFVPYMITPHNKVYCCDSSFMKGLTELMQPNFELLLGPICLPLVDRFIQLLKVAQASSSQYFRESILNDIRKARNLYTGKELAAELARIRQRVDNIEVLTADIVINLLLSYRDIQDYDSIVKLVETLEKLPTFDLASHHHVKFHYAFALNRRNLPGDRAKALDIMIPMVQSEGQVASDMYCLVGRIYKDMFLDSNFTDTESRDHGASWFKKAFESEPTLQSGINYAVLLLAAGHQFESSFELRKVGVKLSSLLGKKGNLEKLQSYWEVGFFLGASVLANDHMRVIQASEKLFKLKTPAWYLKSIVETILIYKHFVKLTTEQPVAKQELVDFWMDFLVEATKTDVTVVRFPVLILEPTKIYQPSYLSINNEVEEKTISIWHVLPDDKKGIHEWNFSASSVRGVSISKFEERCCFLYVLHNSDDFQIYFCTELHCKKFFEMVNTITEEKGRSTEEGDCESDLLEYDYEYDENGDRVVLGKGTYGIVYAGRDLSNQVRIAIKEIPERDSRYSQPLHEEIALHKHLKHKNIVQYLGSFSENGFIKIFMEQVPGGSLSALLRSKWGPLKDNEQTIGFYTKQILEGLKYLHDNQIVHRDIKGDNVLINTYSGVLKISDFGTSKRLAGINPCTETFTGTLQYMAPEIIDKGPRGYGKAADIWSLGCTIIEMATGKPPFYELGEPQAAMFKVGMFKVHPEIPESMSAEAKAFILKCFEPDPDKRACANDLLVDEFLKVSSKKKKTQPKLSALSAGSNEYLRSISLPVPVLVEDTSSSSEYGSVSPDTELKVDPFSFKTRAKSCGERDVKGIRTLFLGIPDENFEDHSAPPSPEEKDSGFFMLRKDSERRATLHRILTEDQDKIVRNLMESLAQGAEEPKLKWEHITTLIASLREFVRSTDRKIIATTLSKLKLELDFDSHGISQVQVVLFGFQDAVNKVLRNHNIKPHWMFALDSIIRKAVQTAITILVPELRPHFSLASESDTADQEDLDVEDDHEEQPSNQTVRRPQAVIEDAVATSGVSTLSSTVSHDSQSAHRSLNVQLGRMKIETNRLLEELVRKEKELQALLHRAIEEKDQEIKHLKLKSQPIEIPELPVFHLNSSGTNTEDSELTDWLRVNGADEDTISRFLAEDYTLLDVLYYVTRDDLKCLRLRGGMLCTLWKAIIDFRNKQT
Description: as §1, §2

Compound | ΔTm (TAOK2 [1]) | pIC50 (TAOK2 [2]) | ΔΔTm (p38) (p38) | ΔΔTm (ASK1) (ASK1) | ΔTm with respect to p38 (p38; DSF cross-reactivity with p38)
Cc1cccc(NC(=S)N/N=C/c2c[nH]c3ccccc23)c1 [SW109820] | 0.5 °C | 6.00 | – | – | –
Cc1ccc(NCCCC(=O)N/N=C/c2cc(Br)cc(Br)c2O)cc1 [SW106178] | 1.6 °C | 5.22 | 1.3 °C | 1.2 °C | –
O=C(NCC1COc2ccccc2O1)c1ccc2c(=O)n(Cc3ccco3)c(=S)[nH]c2c1 (stereo not shown) [SW083604] | 1.2 °C | 6.22 | 0.3 °C | 1.1 °C | 0.9 °C
CCc1ccccc1Nc1ncc(-c2sc(NC(C)=O)nc2C)s1 [SW034513] | 0.1 °C | 5.52 | – | – | –
